According to ChEMBL document CHEMBL2176881, “Development of N-[4-[6-(isopropylamino)pyrimidin-4-yl]-1,3-thiazol-2-yl]-N-methyl-4-[11C]methylbenzamide for positron emission tomography imaging of metabotropic glutamate 1 receptor in monkey brain” (J Med Chem, 2012):
pIC50, pKi: −log10 of the molar value. The source made the active and inactive calls. The calls are words filed in the database; no cut-off is given here.

Key:
[1] = molecular target: Metabotropic glutamate receptor 1 (Rattus norvegicus) (UniProt P23385); assay: Binding affinity to mGlu1 receptor in rat brain homogenates at 7.4 MBq after 60 mins by autoradiography in presence of unlabeled 4-(6-chloropyrimidin-4-yl)-N-methylthiazol-2-amine; format: tissue-based; conditions: 7.4 M, tested as the 14C-labelled form
Chain of Metabotropic glutamate receptor 1 (Rattus norvegicus) (P23385 19-1199 limits assumed): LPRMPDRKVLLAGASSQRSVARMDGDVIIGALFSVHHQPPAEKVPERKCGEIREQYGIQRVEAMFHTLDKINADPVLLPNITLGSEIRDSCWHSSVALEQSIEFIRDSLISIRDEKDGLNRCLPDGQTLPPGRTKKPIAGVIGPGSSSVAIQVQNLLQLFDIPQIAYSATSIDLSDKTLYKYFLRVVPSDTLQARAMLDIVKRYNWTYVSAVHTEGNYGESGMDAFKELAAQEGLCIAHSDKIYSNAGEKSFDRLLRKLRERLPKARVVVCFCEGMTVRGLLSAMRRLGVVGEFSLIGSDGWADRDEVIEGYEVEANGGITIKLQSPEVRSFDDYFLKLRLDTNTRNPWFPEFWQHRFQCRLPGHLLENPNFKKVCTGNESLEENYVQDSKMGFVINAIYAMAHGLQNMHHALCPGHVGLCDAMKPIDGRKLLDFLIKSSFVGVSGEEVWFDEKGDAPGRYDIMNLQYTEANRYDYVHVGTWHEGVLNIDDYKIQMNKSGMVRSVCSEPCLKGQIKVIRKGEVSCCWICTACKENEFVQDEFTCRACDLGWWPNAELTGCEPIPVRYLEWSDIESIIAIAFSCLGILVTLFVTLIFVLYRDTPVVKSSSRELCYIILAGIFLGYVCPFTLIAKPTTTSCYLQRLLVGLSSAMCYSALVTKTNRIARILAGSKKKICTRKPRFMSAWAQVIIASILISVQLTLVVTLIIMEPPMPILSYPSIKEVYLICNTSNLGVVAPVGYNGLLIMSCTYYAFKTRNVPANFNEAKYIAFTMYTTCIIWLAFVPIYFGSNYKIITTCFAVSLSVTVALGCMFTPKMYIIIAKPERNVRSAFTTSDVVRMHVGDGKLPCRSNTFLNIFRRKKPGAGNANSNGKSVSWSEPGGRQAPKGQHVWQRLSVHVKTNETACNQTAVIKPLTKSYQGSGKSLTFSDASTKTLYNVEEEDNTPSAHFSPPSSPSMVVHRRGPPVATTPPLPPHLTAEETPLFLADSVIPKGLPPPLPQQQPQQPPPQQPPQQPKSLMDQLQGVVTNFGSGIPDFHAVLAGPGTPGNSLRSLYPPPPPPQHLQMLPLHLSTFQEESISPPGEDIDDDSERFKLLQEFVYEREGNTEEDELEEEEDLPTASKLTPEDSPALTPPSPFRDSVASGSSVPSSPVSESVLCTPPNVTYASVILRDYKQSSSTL

[2] = molecular target: Metabotropic glutamate receptor 1 (Rattus norvegicus) (UniProt P23385); assay: Binding affinity to mGlu1 receptor in rat brain homogenates at 7.4 MBq after 60 mins by autoradiography in presence of unlabeled N-[4-[6-(Isopropylamino)pyrimidin-4-yl]-1,3-thiazol-2-yl]- N,4-dimethylbenzamide; format: tissue-based; conditions: 7.4 M, tested as the 14C-labelled form
[3] = molecular target: Metabotropic glutamate receptor 1 (Rattus norvegicus) (UniProt P23385); assay: Binding affinity to mGlu1 receptor in rat brain pons at 7.4 MBq after 60 mins by autoradiography; format: tissue-based; conditions: 7.4 M, tested as the 14C-labelled form
[4] = molecular target: Metabotropic glutamate receptor 1 (Rattus norvegicus) (UniProt P23385); assay: Binding affinity to mGlu1 receptor in rat brain cerebral cortex at 7.4 MBq after 60 mins by autoradiography; format: tissue-based; conditions: 7.4 M, tested as the 14C-labelled form
[5] = molecular target: Metabotropic glutamate receptor 1 (Rattus norvegicus) (UniProt P23385); assay: Binding affinity to mGlu1 receptor in rat brain substantia nigra pars reticulate at 7.4 MBq after 60 mins by autoradiography; format: tissue-based; conditions: 7.4 M, tested as the 14C-labelled form
[6] = molecular target: Metabotropic glutamate receptor 1 (Rattus norvegicus) (UniProt P23385); assay: Binding affinity to mGlu1 receptor in rat striatum at 7.4 MBq after 60 mins by autoradiography; format: tissue-based; conditions: 7.4 M, tested as the 14C-labelled form
[7] = molecular target: Metabotropic glutamate receptor 1 (Rattus norvegicus) (UniProt P23385); assay: Binding affinity to mGlu1 receptor in rat thalamus at 7.4 MBq after 60 mins by autoradiography; format: tissue-based; conditions: 7.4 M, tested as the 14C-labelled form
[8] = molecular target: Metabotropic glutamate receptor 1 (Rattus norvegicus) (UniProt P23385); assay: Binding affinity to mGlu1 receptor in rat hippocampus at 7.4 MBq after 60 mins by autoradiography; format: tissue-based; conditions: 7.4 M, tested as the 14C-labelled form
[9] = molecular target: Metabotropic glutamate receptor 1 (Rattus norvegicus) (UniProt P23385); assay: Binding affinity to mGlu1 receptor in rat cerebellum at 7.4 MBq after 60 mins by autoradiography; format: tissue-based; conditions: 7.4 M, tested as the 14C-labelled form
[10] = molecular target: Metabotropic glutamate receptor 1 (Rattus norvegicus) (UniProt P23385); assay: Binding affinity to mGlu1 receptor in rat thalamus; format: tissue-based
[11] = molecular target: Metabotropic glutamate receptor 1 (Rattus norvegicus) (UniProt P23385); assay: Binding affinity to mGlu1 receptor in rat hippocampus; format: tissue-based
[12] = molecular target: Metabotropic glutamate receptor 1 (Rattus norvegicus) (UniProt P23385); assay: Binding affinity to mGlu1 receptor in rat striatum; format: tissue-based
[13] = Lipophilicity, log D of the compound by shake flask method; format: physicochemical; conditions: octanol/water
[14] = molecular target: Metabotropic glutamate receptor 1 (Rattus norvegicus, UniProt P23385); assay: Displacement of [18F]FITM from mGlu1 receptor in rat brain homogenates after 1 hr by gamma counting; format: tissue-based
Chain of Metabotropic glutamate receptor 1 (P23385 whole entry): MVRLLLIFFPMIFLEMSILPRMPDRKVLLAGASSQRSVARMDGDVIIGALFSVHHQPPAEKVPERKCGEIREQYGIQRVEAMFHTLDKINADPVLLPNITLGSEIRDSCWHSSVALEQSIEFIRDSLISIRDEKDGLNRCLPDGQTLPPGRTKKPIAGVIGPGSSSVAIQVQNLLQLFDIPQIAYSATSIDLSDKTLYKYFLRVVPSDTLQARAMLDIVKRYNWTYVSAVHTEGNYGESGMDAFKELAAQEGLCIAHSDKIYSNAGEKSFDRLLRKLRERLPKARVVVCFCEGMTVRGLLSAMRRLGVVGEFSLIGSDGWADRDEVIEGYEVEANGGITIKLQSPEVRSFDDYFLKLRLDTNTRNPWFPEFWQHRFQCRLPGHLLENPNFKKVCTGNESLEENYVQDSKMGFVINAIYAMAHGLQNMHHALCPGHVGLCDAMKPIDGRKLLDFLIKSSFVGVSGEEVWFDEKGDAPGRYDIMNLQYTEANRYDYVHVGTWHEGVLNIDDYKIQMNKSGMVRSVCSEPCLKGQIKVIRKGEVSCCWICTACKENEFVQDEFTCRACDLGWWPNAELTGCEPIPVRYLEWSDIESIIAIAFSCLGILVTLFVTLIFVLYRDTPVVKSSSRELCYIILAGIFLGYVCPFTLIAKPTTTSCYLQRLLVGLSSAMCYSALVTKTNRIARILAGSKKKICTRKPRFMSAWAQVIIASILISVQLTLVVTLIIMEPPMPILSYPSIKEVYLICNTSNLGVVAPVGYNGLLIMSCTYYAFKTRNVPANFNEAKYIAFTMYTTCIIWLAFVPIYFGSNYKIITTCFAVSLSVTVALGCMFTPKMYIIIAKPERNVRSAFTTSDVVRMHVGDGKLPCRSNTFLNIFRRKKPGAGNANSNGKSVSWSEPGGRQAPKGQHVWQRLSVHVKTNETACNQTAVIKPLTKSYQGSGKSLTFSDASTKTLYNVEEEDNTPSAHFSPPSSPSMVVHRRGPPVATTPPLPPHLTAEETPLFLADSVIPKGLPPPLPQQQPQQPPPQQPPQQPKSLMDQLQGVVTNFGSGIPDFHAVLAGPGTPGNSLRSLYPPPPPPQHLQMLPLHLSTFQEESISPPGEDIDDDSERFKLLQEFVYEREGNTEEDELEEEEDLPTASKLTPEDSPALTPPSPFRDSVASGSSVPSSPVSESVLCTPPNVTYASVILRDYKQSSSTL

[15] = molecular target: Metabotropic glutamate receptor 5 (Rattus norvegicus, UniProt P31424); assay: Displacement of [11C]-ABP688 from mGlu5 receptor in rat brain homogenates after 1 hr by gamma counting; format: tissue-based
Chain of Metabotropic glutamate receptor 5 (P31424 whole entry): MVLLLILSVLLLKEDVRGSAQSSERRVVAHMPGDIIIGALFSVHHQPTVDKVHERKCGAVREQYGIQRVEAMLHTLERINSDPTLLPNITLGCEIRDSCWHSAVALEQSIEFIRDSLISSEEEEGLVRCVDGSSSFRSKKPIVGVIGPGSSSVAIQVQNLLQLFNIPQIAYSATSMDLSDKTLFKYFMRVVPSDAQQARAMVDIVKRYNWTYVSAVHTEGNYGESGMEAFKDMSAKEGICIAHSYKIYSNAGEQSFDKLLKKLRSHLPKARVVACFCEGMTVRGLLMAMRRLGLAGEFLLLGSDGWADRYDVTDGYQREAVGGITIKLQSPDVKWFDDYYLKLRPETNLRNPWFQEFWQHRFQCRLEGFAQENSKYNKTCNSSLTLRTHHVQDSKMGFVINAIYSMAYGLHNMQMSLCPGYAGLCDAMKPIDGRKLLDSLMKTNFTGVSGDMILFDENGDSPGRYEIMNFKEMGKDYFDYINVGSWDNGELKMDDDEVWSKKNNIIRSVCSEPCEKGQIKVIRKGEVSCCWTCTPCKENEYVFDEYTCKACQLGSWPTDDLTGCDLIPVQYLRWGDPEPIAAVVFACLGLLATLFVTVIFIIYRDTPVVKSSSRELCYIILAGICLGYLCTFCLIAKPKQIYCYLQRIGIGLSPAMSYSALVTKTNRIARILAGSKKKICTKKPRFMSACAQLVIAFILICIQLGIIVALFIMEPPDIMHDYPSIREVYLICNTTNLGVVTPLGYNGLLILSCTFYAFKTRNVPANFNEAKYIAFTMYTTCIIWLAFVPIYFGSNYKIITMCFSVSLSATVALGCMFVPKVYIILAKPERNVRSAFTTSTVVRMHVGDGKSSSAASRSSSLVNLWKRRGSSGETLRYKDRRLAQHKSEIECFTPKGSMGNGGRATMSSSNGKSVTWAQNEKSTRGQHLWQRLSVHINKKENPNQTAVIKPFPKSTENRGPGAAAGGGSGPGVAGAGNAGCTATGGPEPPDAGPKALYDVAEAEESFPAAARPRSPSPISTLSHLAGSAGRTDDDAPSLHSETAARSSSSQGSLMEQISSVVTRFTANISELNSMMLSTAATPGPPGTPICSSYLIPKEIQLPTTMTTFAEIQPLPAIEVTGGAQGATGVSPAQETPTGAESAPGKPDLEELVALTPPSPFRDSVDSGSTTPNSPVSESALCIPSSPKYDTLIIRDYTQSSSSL

Structure (SMILES)	Activity [1]	Activity [2]	Activity [3]	Activity [4]	Activity [5]	Activity [6]	Activity [7]	Activity [8]	Activity [9]	Activity [10] [nM]	Activity [11] [nM]	Activity [12] [nM]	logD [13]	pIC50 [14]	pKi [14]	pIC50 [15]
Cc1ccc(C(=O)N(C)c2nc(-c3cc(NC(C)C)ncn3)cs2)cc1	inactive	inactive	Active	Active	Active	Active	Active	Active	Active	36.3	27.5	22.2	1.74	7.58	7.87	< 5.00
CC(C)Nc1cc(-c2csc(N(C)C(=O)c3ccc(C#N)cc3)n2)ncn1														7.19	7.56	< 5.00
CC(C)Nc1cc(-c2csc(N(C)C(=O)c3ccc(Cl)cc3)n2)ncn1														7.33	7.65	< 5.00
